Molecules are shown by their SMILES.

What is called IC50 is the midpoint of a concentration-inhibition curve. A high value points to weaker potency in that assay.

Assay type in all cases: biochemical
Holding throughout (conditions): ATP 100 μM

One test deals with JAK1 (Homo sapiens (Human), UniProt P23458). The test can be described thus: Enzyme assay (Assay Example^a 1), JAK1.
In the next test the target is JAK2 (Homo sapiens (Human), UniProt O60674). Briefly: Enzyme assay (Assay Example^a 1), JAK2.
In a further test the target is JAK3 (Homo sapiens (Human), UniProt P52333). The test can be described thus: Enzyme assay (Assay Example^a 1), JAK3.
The target of the next test is Tyk2 (Homo sapiens (Human), UniProt P29597). The test can be described thus: Enzyme assay (Assay Example^a 1), Tyk2.
Tyk2, sequence (P29597 whole entry): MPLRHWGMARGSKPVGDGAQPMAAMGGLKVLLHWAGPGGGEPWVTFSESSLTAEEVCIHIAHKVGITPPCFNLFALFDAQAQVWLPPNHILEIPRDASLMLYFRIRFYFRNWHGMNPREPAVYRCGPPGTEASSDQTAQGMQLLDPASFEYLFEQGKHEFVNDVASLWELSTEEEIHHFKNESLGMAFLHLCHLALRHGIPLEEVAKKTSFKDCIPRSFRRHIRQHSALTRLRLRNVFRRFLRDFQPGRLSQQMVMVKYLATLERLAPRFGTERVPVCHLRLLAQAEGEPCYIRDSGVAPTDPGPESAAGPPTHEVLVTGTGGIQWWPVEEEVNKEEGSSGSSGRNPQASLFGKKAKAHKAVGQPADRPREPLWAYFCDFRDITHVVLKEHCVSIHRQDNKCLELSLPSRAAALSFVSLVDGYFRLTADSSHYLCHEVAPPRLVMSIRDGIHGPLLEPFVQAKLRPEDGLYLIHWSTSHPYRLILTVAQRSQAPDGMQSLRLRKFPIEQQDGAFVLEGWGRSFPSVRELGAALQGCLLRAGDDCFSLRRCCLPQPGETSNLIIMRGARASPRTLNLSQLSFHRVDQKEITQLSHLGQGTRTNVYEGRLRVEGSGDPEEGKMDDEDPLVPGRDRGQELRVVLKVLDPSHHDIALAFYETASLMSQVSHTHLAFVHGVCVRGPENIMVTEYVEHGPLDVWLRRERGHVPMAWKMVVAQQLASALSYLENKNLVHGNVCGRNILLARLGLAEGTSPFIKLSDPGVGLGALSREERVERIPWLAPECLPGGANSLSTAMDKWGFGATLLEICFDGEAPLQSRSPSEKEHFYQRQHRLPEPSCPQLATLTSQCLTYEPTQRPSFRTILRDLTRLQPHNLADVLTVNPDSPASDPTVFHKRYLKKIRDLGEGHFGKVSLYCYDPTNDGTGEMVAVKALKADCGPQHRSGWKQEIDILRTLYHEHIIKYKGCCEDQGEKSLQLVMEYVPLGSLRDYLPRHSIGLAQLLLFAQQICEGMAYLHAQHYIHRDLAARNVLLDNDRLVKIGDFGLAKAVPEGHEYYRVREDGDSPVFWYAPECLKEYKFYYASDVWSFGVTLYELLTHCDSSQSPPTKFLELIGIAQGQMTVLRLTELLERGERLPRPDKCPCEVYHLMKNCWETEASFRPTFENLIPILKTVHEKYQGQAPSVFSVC

JAK3, sequence (P52333 whole entry): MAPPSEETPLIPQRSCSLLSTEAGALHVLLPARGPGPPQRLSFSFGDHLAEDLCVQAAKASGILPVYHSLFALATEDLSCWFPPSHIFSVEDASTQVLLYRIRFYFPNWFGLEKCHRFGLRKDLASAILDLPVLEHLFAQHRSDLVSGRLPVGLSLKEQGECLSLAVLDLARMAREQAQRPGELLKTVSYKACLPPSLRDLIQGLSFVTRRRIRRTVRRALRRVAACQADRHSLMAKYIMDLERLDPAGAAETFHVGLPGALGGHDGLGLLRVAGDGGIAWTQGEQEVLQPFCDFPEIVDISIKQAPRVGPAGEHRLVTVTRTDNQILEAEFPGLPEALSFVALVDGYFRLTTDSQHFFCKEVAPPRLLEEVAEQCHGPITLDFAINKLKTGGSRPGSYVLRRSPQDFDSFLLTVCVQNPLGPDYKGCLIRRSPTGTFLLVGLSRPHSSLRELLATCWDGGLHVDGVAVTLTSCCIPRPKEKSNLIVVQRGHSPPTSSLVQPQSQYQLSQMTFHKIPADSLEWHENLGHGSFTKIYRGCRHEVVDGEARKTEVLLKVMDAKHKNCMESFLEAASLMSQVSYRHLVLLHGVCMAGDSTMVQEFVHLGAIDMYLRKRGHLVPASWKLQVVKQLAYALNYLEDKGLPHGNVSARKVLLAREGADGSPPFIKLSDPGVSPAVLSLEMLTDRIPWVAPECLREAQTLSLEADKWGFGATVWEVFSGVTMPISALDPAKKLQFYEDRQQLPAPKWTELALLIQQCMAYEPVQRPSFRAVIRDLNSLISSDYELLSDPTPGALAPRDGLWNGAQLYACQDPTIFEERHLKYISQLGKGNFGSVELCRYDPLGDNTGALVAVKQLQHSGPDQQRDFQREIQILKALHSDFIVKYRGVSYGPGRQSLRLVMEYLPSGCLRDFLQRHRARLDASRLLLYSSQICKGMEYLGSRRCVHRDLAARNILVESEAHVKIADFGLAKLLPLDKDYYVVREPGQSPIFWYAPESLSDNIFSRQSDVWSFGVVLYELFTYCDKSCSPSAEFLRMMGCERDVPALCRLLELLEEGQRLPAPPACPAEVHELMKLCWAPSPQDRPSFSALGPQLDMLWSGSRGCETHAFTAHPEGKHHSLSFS

`N#Cc1ccc(CCNC(=O)[C@H]2CC[C@H](c3nnn4cnc5[nH]ccc5c34)CC2)cc1` [compound 362, trans-N-(4-cyanophenethyl)-4-(7H-pyrrolo[3,2-e][1,2,3]triazolo[1,5-c]pyrimidin-1-yl)cyclohexanecarboxamide]: the IC50 against JAK1 is 0.0074 µM; on JAK2, 0.057 µM; against JAK3, over 1 µM; against Tyk2, over 1 µM.
As for `N#CC1CN(C(=O)[C@H]2CC[C@H](c3nnn4cnc5[nH]ccc5c34)CC2)C1` [compound 363, 1-[trans-4-(7H-pyrrolo[3,2-e][1,2,3]triazolo[1,5-c]pyrimidin-1-yl)cyclohexanecarbonyl]azetidine-3-carbonitrile], the 50% inhibitory concentration (IC50) was 0.044 µM against JAK1, 0.29 µM against JAK2, over 1 µM against JAK3 and over 1 µM at Tyk2.
Consider `O=S(=O)(C[C@H]1CC[C@H](c2nnn3cnc4[nH]ccc4c23)CC1)C1CC1` [compound 366, 1-{trans-4-[(cyclopropylsulfonyl)methyl]cyclohexyl}-7H-pyrrolo[3,2-e][1,2,3]triazolo[1,5-c]pyrimidine], for which the half-maximal inhibitory concentration (IC50) is 0.011 µM against JAK1, 0.028 µM at JAK2, 0.28 µM against JAK3 and 0.26 µM against Tyk2.
On to `IC[C@H]1CC[C@H](c2nnn3cnc4[nH]ccc4c23)CC1` [compound 367], for which the half-inhibitory concentration (IC50) on JAK1 turned out to be 0.00099 µM; against JAK2, 0.0043 µM; against JAK3 it was 0.054 µM; on Tyk2, 0.0073 µM.
As for `O=S(=O)(C[C@H]1CC[C@H](c2nnn3cnc4[nH]ccc4c23)CC1)C(F)(F)F` [compound 368, 1-(trans-4-{[(Trifluoromethyl)sulfonyl]methyl}cyclohexyl)-7H-pyrrolo[3,2-e][1,2,3]triazolo[1,5-c]pyrimidine], the IC50 is 0.0013 µM against JAK1, 0.0061 µM on JAK2, 0.37 µM against JAK3 and 0.03 µM at Tyk2.
In the case of `[N-]=[N+]=NC[C@H]1CC[C@H](c2nnn3cnc4[nH]ccc4c23)CC1` [compound 369, 1-[trans-4-(Azidomethyl)cyclohexyl]-7H-pyrrolo[3,2-e][1,2,3]triazolo[1,5-c]pyrimidine], the 50% inhibitory concentration (IC50) against JAK1 turned out to be 0.00033 µM; against JAK2 it was 0.0017 µM; at JAK3, 0.048 µM; on Tyk2, 0.0092 µM.
The like results for `CC(C)(O)c1cn(C[C@H]2CC[C@H](c3nnn4cnc5[nH]ccc5c34)CC2)nn1` [compound 370, 2-(1-{[trans-4-(7H-Pyrrolo[3,2-e][1,2,3]triazolo[1,5-c]pyrimidin-1-yl)cyclohexyl]methyl}-1H-1,2,3-triazol-4-yl)propan-2-ol] were, in that order, 0.0074 µM, 0.097 µM, 0.59 µM and over 1 µM.
As for `NC[C@H]1CC[C@H](c2nnn3cnc4[nH]ccc4c23)CC1` [compound 371, [trans-4-(7H-Pyrrolo[3,2-e][1,2,3]triazolo[1,5-c]pyrimidin-1-yl)cyclohexyl]methanamine], the IC50 on JAK1 came out at 0.0033 µM; against JAK2, 0.035 µM; against JAK3, 0.39 µM; against Tyk2, 0.18 µM.
Regarding `N#CCC(=O)NC[C@H]1CC[C@H](c2nnn3cnc4[nH]ccc4c23)CC1` [compound 372, N-{[trans-4-(7H-Pyrrolo[3,2-e][1,2,3]triazolo[1,5-c]pyrimidin-1-yl)cyclohexyl]methyl}-2-cyanoacetamide], the concentration for half-maximal inhibition (IC50) on JAK1 stood at 0.0041 µM; against JAK2, 0.016 µM; against JAK3, 0.23 µM; against Tyk2, 0.41 µM.
Turning to `O=C(CC(F)(F)F)NC[C@H]1CC[C@H](c2nnn3cnc4[nH]ccc4c23)CC1` [compound 373, N-{[trans-4-(7H-Pyrrolo[3,2-e][1,2,3]triazolo[1,5-c]pyrimidin-1-yl)cyclohexyl]methyl}-3,3,3-trifluoropropanamide], the IC50 was 0.0015 µM on JAK1, 0.011 µM against JAK2, 0.035 µM at JAK3 and 0.53 µM against Tyk2.
With `Cc1c(CN2CCC(c3nnn4cnc5[nH]ccc5c34)CC2)c(Cl)nn1CC(F)(F)F` [compound 374, 1-{1-[(3-Chloro-5-methyl-1-(2,2,2-trifluoroethyl)-1H-pyrazol-4-yl)methyl]piperidin-4-yl}-7H-pyrrolo[3,2-e][1,2,3]triazolo[1,5-c]pyrimidine], the IC50 against JAK1 was 0.038 µM; against JAK2 it was 0.18 µM; on JAK3 it was over 1 µM; against Tyk2, over 1 µM.
`N#Cc1ccc(N2CCC(c3nnn4cnc5[nH]ccc5c34)CC2)cc1` [compound 376, 4-[4-(7H-Pyrrolo[3,2-e][1,2,3]triazolo[1,5-c]pyrimidin-1-yl)piperidin-1-yl]benzonitrile]: the half-maximal inhibitory concentration (IC50) is 0.019 µM at JAK1, 0.19 µM against JAK2, over 1 µM against JAK3 and over 1 µM on Tyk2.
Take `N#Cc1ccc(CN2CCC(c3nnn4cnc5[nH]cc(Cl)c5c34)CC2)cc1` [compound 377, 4-{[4-(9-Chloro-7H-pyrrolo[3,2-e][1,2,3]triazolo[1,5-c]pyrimidin-1-yl)piperidin-1-yl]methyl}benzonitrile]: the 50% inhibitory concentration (IC50) against JAK1 is 0.0045 µM; at JAK2, 0.017 µM; on JAK3, 0.054 µM; against Tyk2 it was over 1 µM.
For `N#CCCN(CCC#N)C1CCC(c2nnn3cnc4[nH]ccc4c23)CC1` (centres unmarked) [compound 380, 3,3′-{[4-(7H-pyrrolo[3,2-e][1,2,3]triazolo[1,5-c]pyrimidin-1-yl)cyclohexyl]azanediyl}dipropanenitrile], the IC50 against JAK1 came out at 0.002 µM; against JAK2, 0.0025 µM; against JAK3, 0.2 µM; on Tyk2, 0.028 µM.
Take `OC1CN(C[C@H]2CC[C@@H](c3nnn4cnc5[nH]ccc5c34)CC2)C1` [compound 403, 1-{[cis-4-(7H-Pyrrolo[3,2-e][1,2,3]triazolo[1,5-c]pyrimidin-1-yl)cyclohexyl]methyl}azetidin-3-ol]: the IC50 on JAK1 is 0.04 µM; at JAK2, 0.3 µM; against JAK3 it was 0.44 µM; against Tyk2, 0.81 µM.
With `c1cc2c(ncn3nnc([C@H]4CC[C@@H](CNC5CC5)CC4)c23)[nH]1` [compound 406, N-{[cis-4-(7H-pyrrolo[3,2-e][1,2,3]triazolo[1,5-c]pyrimidin-1-yl)cyclohexyl]methyl}cyclopropanamine], the half-maximal inhibitory concentration (IC50) on JAK1 is 0.083 µM; against JAK2, 0.56 µM; at JAK3 it was over 1 µM; on Tyk2, 0.94 µM.
In the case of `N#CCC(=O)N(CC(F)(F)F)C[C@H]1CC[C@H](c2nnn3cnc4[nH]ccc4c23)CC1` [compound 407, N-{[trans-4-(7H-Pyrrolo[3,2-e][1,2,3]triazolo[1,5-c]pyrimidin-1-yl)cyclohexyl]methyl}-2-cyano-N-(2,2,2-trifluoroethyl)acetamide], the IC50 came out at 0.0034 µM at JAK1, 0.0073 µM against JAK2, 0.31 µM at JAK3 and 0.13 µM against Tyk2.
For the compound `N#CCC(=O)N(CC#N)C[C@H]1CC[C@H](c2nnn3cnc4[nH]ccc4c23)CC1` [compound 408, N-{[trans-4-(7H-pyrrolo[3,2-e][1,2,3]triazolo[1,5-c]pyrimidin-1-yl)cyclohexyl]methyl}-2-cyano-N-(cyanomethyl)acetamide], the IC50 on JAK1 was determined as 0.0052 µM; against JAK2 it was 0.013 µM; on JAK3 it was 0.22 µM; against Tyk2 it was 0.31 µM.
On the same counts, the results for `N#CCC(=O)N(C[C@H]1CC[C@H](c2nnn3cnc4[nH]ccc4c23)CC1)C1CC1` [compound 409, N-{[trans-4-(7H-pyrrolo[3,2-e][1,2,3]triazolo[1,5-c]pyrimidin-1-yl)cyclohexyl]methyl}-2-cyano-N-cyclopropylacetamide] are 0.019 µM, 0.032 µM, 0.92 µM and 0.84 µM.
On the same counts, the results for `Cc1ccc(CN(C[C@H]2CC[C@H](c3nnn4cnc5[nH]ccc5c34)CC2)C(=O)CC#N)o1` [compound 410, N-{[trans-4-(7H-pyrrolo[3,2-e][1,2,3]triazolo[1,5-c]pyrimidin-1-yl)cyclohexyl]methyl}-2-cyano-N-[(5-methylfuran-2-yl)methyl]acetamide] are 0.022 µM, 0.04 µM, 0.32 µM and 0.58 µM.
Regarding `O=C(CC(F)(F)F)N(CC(F)(F)F)C[C@H]1CC[C@H](c2nnn3cnc4[nH]ccc4c23)CC1` [compound 411, N-{[trans-4-(7H-Pyrrolo[3,2-e][1,2,3]triazolo[1,5-c]pyrimidin-1-yl)cyclohexyl]methyl}-3,3,3-trifluoro-N-(2,2,2-trifluoroethyl)propanamide], the IC50 against JAK1 is 0.0043 µM; on JAK2, 0.015 µM; against JAK3, 0.17 µM; at Tyk2, 0.36 µM.
Consider `N#CCN(C[C@H]1CC[C@H](c2nnn3cnc4[nH]ccc4c23)CC1)C(=O)CC(F)(F)F` [compound 412, N-{[trans-4-(7H-Pyrrolo[3,2-e][1,2,3]triazolo[1,5-c]pyrimidin-1-yl)cyclohexyl]methyl}-N-(cyanomethyl)-3,3,3-trifluoropropanamide], for which the IC50 against JAK1 worked out at 0.0026 µM; against JAK2 it was 0.0056 µM; against JAK3 it was 0.054 µM; at Tyk2 it was 0.32 µM.
For the compound `N#CCN(CC1CC1)C[C@H]1CC[C@H](c2nnn3cnc4[nH]ccc4c23)CC1` [compound 414, 2-({[trans-4-(7H-pyrrolo[3,2-e][1,2,3]triazolo[1,5-c]pyrimidin-1-yl)cyclohexyl]methyl}(cyclopropylmethyl)amino)acetonitrile], the 50% inhibitory concentration (IC50) against JAK1 was 0.0095 µM; against JAK2 it was 0.13 µM; on JAK3, over 1 µM; at Tyk2, 0.11 µM.

Values taken from US9216999B2, “Substituted pyrrolo[2,3-h][1,6]naphthyridines and compositions thereof as JAK inhibitors” (priority 2011, dated 2015).
